In patent US11141410B2 (MERCK SHARP & DOHME CORP., priority 2015, dated 2021):

Columns and labels:
[1] = tested on: MRSA COL (MB5393); assay: TarO Inhibitor/β-Lactam Synergy Assay (growth, OD600); assay type: cell-based, Staphylococcus aureus; details: for MITC95 TarO inhibitor + 4 μg/mL IPM; Bacteria: SA_MB5393: in combination with 4 μg/mL imipenem (IPM); for MITC95 TarO inhibitor + 8 μg/mL DCX; Bacteria: SA_MB5393: in combination with 8 μg/mL dicloxacillin (DCX)
Experimental: The TarO inhibitor/β-lactam synergy assay was performed to measure the re-sensitization of methicillin-resistant Staphylococci bacteria (MB5393: MRSA COL) to β-lactam antibiotics by TarO inhibitors. MRSA COL is a hospital-acquired penicillinase-negative clinically isolated strain commonly used in Staphylococcus aureus studies and is fully resistant to the antimicrobial bioactivity of β-lactam antibiotics, including but not limited to imipenem and dicloxacillin. […] MRSA COL is fully refractory to β-lactam antibiotic effect at the current clinical breakpoint concentrations and as such MRSA COL is fully viable at these concentrations.
The β-lactam antibiotic concentration was fixed at the clinical breakpoint (imipenem 4 μg/ml or dicloxacillin 8 μg/ml) and the TarO inhibitors were titrated by 2 fold starting from the highest concentration of 200 μM with final DMSO concentration of 2% in the assay. 5×10^5 colony forming unit of MRSA COL in cation-adjusted Mueller Hinton broth (CAMHB) was then mixed and the assay plate was incubated for 20 hours at 37° C. without shaking. After 20 hours, the optical density at 600 nm (OD600) was read for all wells to determine relative growth of MRSA COL.

[2] = tested on: MRSA COL (MB5393); assay: as above; assay type: cell-based; details: Staphylococcus aureus, TarO inhibitor alone, >200 μM = 95% growth inhibition not achieved, 20 hours at 37° C., read-out: MITC95 TarO inhibitor alone, Bacteria: SA_MB5393

SMILES | MITC95 TarO inhibitor + 4 μg/mL IPM; Bacteria: SA_MB5393 [1] [µM] | MITC95 TarO inhibitor + 8 μg/mL DCX; Bacteria: SA_MB5393 [1] [µM] | IC95 [2] [µM]
C[C@H]1[C@@H](c2cc(C(F)(F)F)cc(C(F)(F)F)c2)OC(=O)N1C(=O)NCc1cccc2c1OCCO2 [Example 49, (4S,5R)-5-[3,5-bis(trifluoromethyl)phenyl]-N-(2,3-dihydro-1,4-benzodioxin-5-ylmethyl)-4-methyl-2-oxo-1,3-oxazolidine-3-carboxamide] | 0.02 | 0.13 | > 200
CC[C@H]1[C@@H](c2cc(C(F)(F)F)cc(C(F)(F)F)c2)OC(=O)N1C(=O)CCc1cncc2ccccc12 [Example 83, (4S,5R)-5-[3,5-bis(trifluoromethyl)phenyl]-4-ethyl-3-(3-isoquinolin-4-ylpropanoyl)-1,3-oxazolidin-2-one] | 0.06 | 0.59 | > 200
COc1cc([C@H]2OC(=O)N(C(=O)NCc3cncc4cccnc34)C[C@H]2C)cc(C(F)(F)F)c1 [Example 94, (5R,6S)-6-[3-methoxy-5-(trifluoromethyl)phenyl]-5-methyl-N-(1,6-naphthyridin-8-ylmethyl)-2-oxo-1,3-oxazinane-3-carboxamide] | 3.52 | 44 | > 200
C[C@H]1[C@@H](c2cc(C(F)(F)F)cc(C(F)(F)F)c2)OC(=O)N1C(=O)NCc1cccnc1N1CCOCC1 [Example 45, (4S,5R)-5-[3,5-bis(trifluoromethyl)phenyl]-4-methyl-N-[(2-morpholin-4-ylpyridin-3-yl)methyl]-2-oxo-1,3-oxazolidine-3-carboxamide] | 4.69 | 25 | > 200
Cc1cc([C@H]2OC(=O)N(C(=O)CCc3cccc4cnccc34)[C@H]2C)cc(C(F)(F)F)c1 [Example 74, (4S,5R)-3-(3-isoquinolin-5-ylpropanoyl)-4-methyl-5-[3-methyl-5-(trifluoromethyl)phenyl]-1,3-oxazolidin-2-one] | 0.30 | 6.25 | > 200
C[C@H]1[C@@H](c2cc(F)cc(C(F)(F)F)c2)OC(=O)N1C(=O)NCc1cccc2cncnc12 [Example 30, (4S,5R)-5-[3-fluoro-5-(trifluoromethyl)phenyl]-4-methyl-2-oxo-N-(quinazolin-8-ylmethyl)-1,3-oxazolidine-3-carboxamide] | 0.68 | 4.69 | > 200
C[C@H]1[C@@H](c2cc(F)cc(C(F)(F)F)c2)OC(=O)N1C(=O)NCc1ccnc2cccnc12 [Example 34, (4S,5R)-5-[3-fluoro-5-(trifluoromethyl)phenyl]-4-methyl-N-(1,5-naphthyridin-4-ylmethyl)-2-oxo-1,3-oxazolidine-3-carboxamide] | 1.95 | 14.06 | > 200
COc1cc([C@H]2OC(=O)N(C(=O)NCc3cccc4nccnc34)[C@H]2CO)cc(C(F)(F)F)c1 [Example 58, (4S,5R)-4-(hydroxymethyl)-5-[3-methoxy-5-(trifluoromethyl)phenyl]-2-oxo-N-(quinoxalin-5-ylmethyl)-1,3-oxazolidine-3-carboxamide] | 1.56 | 6.25 | > 200
COc1cccc(CNC(=O)N2C(=O)O[C@H](c3cc(C(F)(F)F)cc(C(F)(F)F)c3)[C@@H]2CO)c1OC [Example 52, (4S,5R)-5-[3,5-bis(trifluoromethyl)phenyl]-N-(2,3-dimethoxybenzyl)-4-(hydroxymethyl)-2-oxo-1,3-oxazolidine-3-carboxamide] | 0.03 | 0.06 | > 200
C[C@H]1[C@@H](c2cc(F)c(F)c(F)c2)OC(=O)N1C(=O)CCc1cncc2ccccc12 [Example 78, (4S,5R)-3-(3-isoquinolin-4-ylpropanoyl)-4-methyl-5-(3,4,5-trifluorophenyl)-1,3-oxazolidin-2-one] | 1.17 | – | > 200
Cc1cc(F)cc([C@H]2OC(=O)N(C(=O)CCc3cncc4ccccc34)[C@H]2C)c1 [Example 79, (4S,5R)-5-(3-fluoro-5-methylphenyl)-3-(3-isoquinolin-4-ylpropanoyl)-4-methyl-1,3-oxazolidin-2-one] | 1.17 | 12.50 | > 200
O=C(CCc1cncc2ccccc12)N1CC(c2cccc(F)c2F)OC1=O (centres unmarked) [Example 86, 5-(2,3-difluorophenyl)-3-(3-isoquinolin-4-ylpropanoyl)-1,3-oxazolidin-2-one] | 1.41 | 8.33 | > 200
Cc1nc(C)c(CNC(=O)N2C(=O)O[C@H](c3cc(F)cc(C(F)(F)F)c3)[C@@H]2C)s1 [Example 43, (4S,5R)-N-[(2,4-dimethyl-1,3-thiazol-5-yl)methyl]-5-[3-fluoro-5-(trifluoromethyl)phenyl]-4-methyl-2-oxo-1,3-oxazolidine-3-carboxamide] | 5.21 | 42 | > 200
C[C@H]1[C@@H](c2cc(F)cc(C(F)(F)F)c2)OC(=O)N1C(=O)NCc1cccc2nccnc12 [Example 22, (4S,5R)-5-[3-fluoro-5-(trifluoromethyl)phenyl]-4-methyl-2-oxo-N-(quinoxalin-5-ylmethyl)-1,3-oxazolidine-3-carboxamide] | 0.49 | 6.25 | > 200
C[C@H]1[C@@H](c2cc(Br)cc(C(F)(F)F)c2)OC(=O)N1C(=O)CCc1cncc2ccccc12 [Example 88, (4S,5R)-5-[3-bromo-5-(trifluoromethyl)phenyl]-3-(3-isoquinolin-4-ylpropanoyl)-4-methyl-1,3-oxazolidin-2-one] | 1.30 | 6.25 | > 200
C[C@H]1[C@@H](c2cc(N3CCC(F)(F)C3)cc(C(F)(F)F)c2)OC(=O)N1C(=O)NCc1cccc2cncnc12 [Example 97, (4S,5R)-5-(3-(3,3-difluoropyrrolidin-1-yl)-5-(trifluoromethyl)phenyl)-4-methyl-2-oxo-N-(quinazolin-8-ylmethyl)oxazolidine-3-carboxamide] | 0.42 | 3.32 | > 200
C[C@H]1[C@@H](c2cc(C(F)(F)F)cc(C(F)(F)F)c2)OC(=O)N1C(=O)NCc1cccc2ccnn12 [Example 2, (4S,5R)-5-[3,5-bis(trifluoromethyl)phenyl]-4-methyl-2-oxo-N-(pyrazolo[1,5-a]pyridin-7-ylmethyl)-1,3-oxazolidine-3-carboxamide] | 0.01 | 0.21 | > 200
C[C@H]1[C@@H](c2cc(F)cc(C(F)(F)F)c2)OC(=O)N1C(=O)NCc1ccccc1Cl [Example 21, (4S,5R)-N-(2-chlorobenzyl)-5-[3-fluoro-5-(trifluoromethyl)phenyl]-4-methyl-2-oxo-1,3-oxazolidine-3-carboxamide] | 0.16 | 1.73 | > 200
O=C(CCc1cncc2ccccc12)N1C[C@H](c2cc(C(F)(F)F)cc(C(F)(F)F)c2)OC1=O [Example 85, (5S)-5-[3,5-bis(trifluoromethyl)phenyl]-3-(3-isoquinolin-4-ylpropanoyl)-1,3-oxazolidin-2-one] | 0.55 | 25.00 | > 200
Cc1ccc2c(n1)N(CCC(=O)N1C(=O)O[C@H](c3cc(F)cc(C(F)(F)F)c3)[C@@H]1C)CCO2 [Example 92, (4S,5R)-5-(3-fluoro-5-(trifluoromethyl)phenyl)-4-methyl-3-(3-(6-methyl-2,3-dihydro-4H-pyrido[3,2-b][1,4]oxazin-4-yl)propanoyl)oxazolidin-2-one] | 0.51 | 7.50 | > 200
Cc1cccnc1CNC(=O)N1C(=O)O[C@H](c2cc(C(F)(F)F)cc(C(F)(F)F)c2)[C@@H]1C [Example 31, (4S,5R)-5-[3,5-bis(trifluoromethyl)phenyl]-4-methyl-N-[(3-methylpyridin-2-yl)methyl]-2-oxo-1,3-oxazolidine-3-carboxamide] | 0.43 | 8.33 | > 200
